# Assay results as given in patent publication US7713960B2, “Inhibition of the Raf/Mek/P-Erk pathway for treating cancer” (University of South Florida, priority 2005, dated 2010).
# Values joined by “and” are separate entries in the source; they are usually repeats but may differ in a detail not shown here. Equal values may be shown once. Where a name gives a salt, the structure may show the parent alone.
# Columns and labels:
# MDA-MB-231 cells [1] = test: Nude mouse xenograft model, MDA-MB-231 (mammary fat pads); type: in vivo, nude mice; conditions: MDA-MB-231 xenograft; i.p. 200 mpk/day
# Excerpt: (§1) Anti-tumor activity in nude mouse xenograft model—Female athymic nude (nu/nu) mice, 5-6 weeks old, were purchased from Charles River (Wilmington, Mass.) and allowed to acclimate in the animal facility for one week. After harvesting, A-549, SNB-19, ACHN, and HCT-116 cells were, resuspended in sterile PBS, and injected s.c. into the right and left flanks (10×10^6 cells per flank) of the mice as previously described (Sun et al., 2005). For MDA-MB-231, cells were harvested and resuspended in PBS (10×10^6 cells per 50 μl) and an equal volume of Matrigel (BD Biosciences, San Jose, Calif.). 100 μl of MDA-MB-231 cells in PBS/Matrigel were injected s.c. into the mammary fat pads between the 2nd and 3rd nipples on each side of the mice. Once the tumors reached approximately 200-300 mm^3 the mice were randomized and treated i.p. with 0.1 ml vehicle (PBS) or ARA-211. Each treatment group consisted of five mice (2 tumors per mouse, a total of 10 tumors). The tumor volumes were determined by measuring the length (l) and width (w) and calculating the volume (V=w^2l/2). Statistical significance between the control and treated animals was determined using a student's t test.
# c-Raf-1 = test: In vivo kinase assay, intact MDA-MB-231 cells treated, c-Raf-1; type: cell-based, human; conditions: 10 μM
# Method: In Vitro Kinase Assays—MDA-MB-231 cells (2×10^6) were lysed for 30 minutes at 4° C. in RIPA-150 buffer (10 mM Tris pH 7.5, 150 mM NaCl, 10% glycerol, 5 mM EDTA, 1% Triton X-100, 0.1% SDS, 100 μM sodium orthovanadate, 1 μM aprotinin, 10 μM leupeptin, 10 μM antipain). Cell debris was pelleted at 13000 rpm for 15 minutes at 4° C. and the lysate was rocked overnight with 10 μg of either c-Raf or MEK antibodies (Santa Cruz Biotechnologies, Santa Cruz, Calif.). 25 μl of protein A/G PLUS agarose (Santa Cruz Biotechnology) was then added and rocked for 4 hours at 4° C. Samples were spun at 2000 rpm for 5 minutes to collect the agarose beads, which were then washed four times with lysis buffer. On the final wash each pellet was divided into 5. […]
# SF-539 cells = test: Anchorage-independent growth (soft agar assay), SF-539; type: cell-based, human
# Method: Soft Agar Assay—Anchorage independent growth assays were performed as previously described (Lerner et al., 1997). Briefly, agar was diluted to 0.3% in propagation media containing 20,000 cells and either vehicle or ARA-211 and 1 ml of cell/agar mixture plated on top of 2 ml of a 0.6% layer of agar in medium alone. Cells were grown for three to four weeks at 37° C., 10% Co2 and were fed weekly with 100 μl per well of media/treatment. Quantification of colonies was done using a GS-700 scanning densitometer.
# HCT-116 cells [2] = test: Apoptosis assay (Cell Death Detection ELISA), HCT-116; type: cell-based, human; conditions: 48 hours, two single values, dihydrochloride
# Method: Apoptosis Assay—Apoptosis was analyzed using the Cell Death Detection ELISA (Roche, Indianapolis, Ind.) measuring cytoplasmic histone-associated mono- and oligonucleosome DNA fragments. Procedures were carried out according to the manufacturers protocol. Briefly, 1×10^5 cells were plated in 60 mm dishes and treated with various doses of ARA-211 or vehicle for 48 hours. Cells were lysed with the provided lysis buffer and lysate was incubated on the ELISA plate for 1 hour to capture the histone associated DNA indicative of apoptotic cells. Anti-DNA peroxidase conjugated antibody was added to detect the cleaved DNA and the microplate was washed and developed with ABTS substrate which was quantitated by microplate reader at 405 nm.
# HCT-116 cells [3] = test: Nude mouse xenograft model, HCT-116 (s.c.); type: in vivo, nude mice; conditions: HCT-116 xenograft; i.p. 75 mpk/day
# Excerpt: as §1
# protein kinase A (PKA) = test: PKA kinase assay, MDA-MB-231 cells; type: cell-based, human
# Method: PKA Kinase Assay—PKA kinase assays were performed with the SignaTECT® cAMP-Dependent Protein Kinase (PKA) Assay System (Promega, Madison Wis.) according to the manufacturer's protocol. Briefly, cells were plated (5×10^6) into 100 mm dishes and treated the next day with ARA-211, H-89 (EMD Biosciences), or vehicle. Cells were lysed using a Dounce homogenizer and lysates were incubated in the supplied kinase reaction buffer, with ^32P-ATP and biotin labeled PKA peptide substrate for 5 min at 37° C. Once the reactions were quenched they were spotted onto streptavidin membranes and ^32P-ATP transfer was measured via scintillation counter.
# MDA-MB-231 cells [4] = test: Anchorage-dependent growth (MTT assay), MDA-MB-231; type: cell-based, human
# Method: MTT Assay—2000 cells per well were plated into 96 well tissue culture plates, and the cells were allowed to attach overnight at 37° C. with 10% CO2. Cells were then treated with increasing concentrations of ARA-211, or vehicle (DMSO) and incubated for four days. At that time treatment medium was removed and replaced with 100 μl of lmg/ml MTT (Sigma-Aldrich, St. Louis, Mo.) in media and incubated at 37° C., 10% CO2 for 3 hours. After 3 hours the MTT media was removed and replaced with 100 μl/well of DMSO, rocked at room temperature for 5 minutes, then absorbance read at 540 nm on a micro-plate reader.
smiles,measurement,setting,value
"CC(C)(C)NCC(O)c1ccc(O)c(CO)n1 (stereo not shown) [ARA-211, 2-hydroxymethyl-3-hydroxy-6-(1-hydroxy-2-tert-butylaminoethyl) pyridine, dihydrochloride]",growth of tumors,MDA-MB-231 cells [1],caused tumor regression
same,"c-Raf-1 kinase activity, intact cells first treated",c-Raf-1,blocked
same,Anchorage Independent Growth (% Inhibition),SF-539 cells,94.4 ± 1.5%
same,Apoptosis (% Induction),HCT-116 cells [2],0% and 1.2%
same,growth of tumors,HCT-116 cells [3],is not affected
same,activation of protein kinase A (PKA),protein kinase A (PKA),activation of protein kinase A (PKA)
same,Anchorage Dependent Growth (% Inhibition),MDA-MB-231 cells [4],60.6 ± 6.5%
